According to patent publication US10793514B2, “Glutamine transport inhibitors and methods for treating cancer” (Vanderbilt University, priority 2016, dated 2020):

What was measured:
[1] = system: HEK-293 cells; assay: 3H-labeled amino acid uptake selectivity panel; type: cell-based, human; conditions: 3H-leucine, HEK293
Procedure: Live-cell amino acid uptake assays using HEK293 cells were carried out in 96-well plates (CulturPlate-96, Perkin Elmer). 96-well plates were coated with poly-D-lysine prior to the assay. Cells were plated at a density of 35,000 cells per well 24 h prior to carrying out the assay. Each set of conditions was replicated at least three times, technically and biologically. […] For ASCT2-mediated ^3H-glutamine uptake assays, 5 mM of the system-L inhibitor 2-amino-2-norbornanecarboxylic acid (BCH) was added and the assay buffer was adjusted to pH 6.0. For selectivity studies, no BCH was added and the assay was conducted at pH 7.4. Following the incubation period, the ^3H-glutamine/inhibitor was removed and the cells were washed three times with assay buffer. The cells were then lysed by the addition of 50 μL of 1 M NaOH. For reading, 150 μL of scintillation fluid (Microscint 40, Perkin Elmer) was added and the plates were counted on a scintillation counter (Topcount, Perkin Elmer). Fifty percent inhibitory concentrations (IC50) were calculated using GraphPad Prism version 6 for Mac OS X, GraphPad Software, San Diego Calif. USA, www.graphpad.com. Error is reported as standard deviation (SD).

[2] = system: human CRC cell lines; assay: Follow-up viability screening (MultiTox Glo, sulforhodamine B); type: cell-based
Procedure: (§1) Viability was evaluated using a commercially available chemiluminescent reagents (CellTiter-Glo, Promega Corp. G7572; MultiTox Glo, Promega Corp. G9270) in 96-well plate format according to the manufacturers protocol. […] Subsequently, CellTiter-Glo reagent was added and the plates were read using a plate reader (BioTek Synergy 4) with standard settings. Each set of conditions was replicated at least three times, technically and biologically. Error is reported as standard deviation (SD). The sulforhodamine B assay was run analogously to the above assays as previously described^19.

[3] = system: HCC1806 cells; assay: Immunoblot of pS6 and pERK in HCC1806 cells; type: cell-based, human; conditions: 25 μM, 48 hrs
Procedure: For immunoreactivity studies, tissue samples were diluted to 100 mg/mL in lysis buffer (#7018s, Cell Signaling Technology) and subsequently homogenized, sonicated, and spun at 3.5K RPM for 1 min. Lysate samples were then screened against an array of target-specific capture antibodies using PathScan Intracellular Signaling Array Kits (#7323, Cell Signaling Technology) in accordance with the manufacturer's instructions and developed using HyBlot CL autoradiography film (# e3012, Denville Scientific Inc.). Processed films were digitized using an Epson Perfection V600 Photo scanner and the relative pixel intensities for each blot quantified using the image processing software ImageJ. Complementary western blot studies were performed by loading 20-40 μg of protein into 7.5-12% SDS PAGE gels, […]. Membranes were blocked overnight at 4° C. in trisbuffered saline 0.1% Tween-20 (TBST) containing 5% w/v nonfat dry milk powder and subsequently incubated with antibodies to p-ERK 1/2 Thr202/Tyr204 (Cell Signaling, 4370), pS6 (Cell Signaling, #4858) LC3B, (anti LC3B, Cell signaling 2775), or b-tubulin (Novus Biologicals, NB600-936); Membrane chemiluminescence was imaged on a Xenogen IVIS 200 system.

[4] = system: pERK in HCC1806 and HT29 cells; assay: AlphaScreen SureFire pERK assay; type: cell-based, human; conditions: 48 h
Procedure: Detection of activated ERK in cell lysates was enabled by the AlphaScreen SureFire ERK assay (Perkin Elmer) according to the manufacturers protocol. Cells were plated in 96-well plates for 24 hours prior to the assay.

[5] = system: HT29 and HCT-116 cells; assay: Cell viability with or without chloroquine; type: cell-based, human; conditions: combined with chloroquine (10 μM), 48 h
Procedure: as §1

[6] = system: HCC1806 cell line xenograft; assay: [18F]-4F-glutamine PET imaging; type: in vivo, mouse; conditions: single dose 75 mg/kg, 4 h
Procedure: Animal handling methods for PET imaging studies were conducted as reported^5,42 Prior to imaging, animals were allowed to acclimate to facility environment for at least 1 h in a warmed chamber at 31.5° C. Animals were administered 10.4-11.8 MBq 4-[^18F]fluoroglutamine via intravenous injection and imaged using a Concorde Microsystems Focus 220 microPET scanner (Siemens Preclinical Solutions). During imaging, animals were maintained under 2% isoflurane anesthesia in oxygen at 2 L/min and kept warm for the duration of the PET scan. PET images in xenograft-bearing mice were acquired as 60-minute dynamic data sets. […] PET data were reconstructed using a three-dimensional (3D) ordered subset expectation maximization/maximum a posteriori (OSEM3D/MAP) algorithm. […] ASIPro software (Siemens Preclinical Solutions) was used to manually draw 3D regions of interest (ROIs) surrounding the entire tumor volume. 4-[^18F]fluoroglutamine uptake was quantified as the percentage of the injected dose per gram of tissue (% ID/g). Significance was calculated using a t-test in Graphpad Prism. Error is reported as standard deviation (SD).
For in vivo studies, cell-line xenograft tumors were propagated in 6-week old, female athymic nude mice from immortalized cell lines. […] Tumor volumes were measured manually using calipers every third day and quantified using the formula V=W·L·(H/2).

[7] = system: HT29 (BRAF V600E) cell-line xenografts; assay: HT29 xenograft chronic exposure study; type: in vivo, mouse; conditions: 75 mg/kg per day, 21 days
Procedure: Tissues were sectioned (5 μm thickness) and stained for pS6 (Cell Signaling, #4858) and caspase 3 (Cell Signaling #9661). Tissue slides were imaged at 20× magnification.
(§2) For in vivo studies, cell-line xenograft tumors were propagated in 6-week old, female athymic nude mice from immortalized cell lines. For HCC-1806 (10×10^6 cells), HCT-116 (5×10^6), and HT29 (10×10^6) cells were injected. Palpable tumors were typically visible within 2-3 weeks. For imaging studies (HCC-1806), tumors were propagated to approximately 500 mm^3. For treatment studies (HCT-116, HT29) tumors were propagated to approximately 200 mm^3 prior to therapy and were randomly assigned into treated and untreated cohorts. For generating the PDX, primary tumor tissue was obtained form a patient at Vanderbilt University Medical Center under an IRB approved protocol. The tumor tissue was genotyped within the VANTAGE core facility. Xenograft was generated as previously described 41. Briefly, tumor tissues were sectioned into approximately 125 cubic millimeter pieces then implanted subcutaneously without further manipulation. […] Tumor volumes were measured manually using calipers every third day and quantified using the formula V=W·L·(H/2).

[8] = system: patient-derived xenograft (PDX) tumor A-008; assay: Patient-derived xenograft chronic exposure study; type: in vivo, mouse; conditions: 75 mg/kg daily, 31 days; vs vehicle
Procedure: as §2

[9] = system: Colo-205 xenografts; assay: Colo-205 xenograft 10-day exposure study; type: in vivo, mouse; conditions: 75 mg/kg per day, 10 days
[10] = target: ASCT2 (Homo sapiens (Human), UniProt Q15758); assay: Drug Affinity Responsive Target Stability (DARTS) assay, ASCT2; conditions: tetracycline-inducible ASCT2 HEK293 cells; 50, 100, 200 μM
Chain of ASCT2 (Q15758 whole entry): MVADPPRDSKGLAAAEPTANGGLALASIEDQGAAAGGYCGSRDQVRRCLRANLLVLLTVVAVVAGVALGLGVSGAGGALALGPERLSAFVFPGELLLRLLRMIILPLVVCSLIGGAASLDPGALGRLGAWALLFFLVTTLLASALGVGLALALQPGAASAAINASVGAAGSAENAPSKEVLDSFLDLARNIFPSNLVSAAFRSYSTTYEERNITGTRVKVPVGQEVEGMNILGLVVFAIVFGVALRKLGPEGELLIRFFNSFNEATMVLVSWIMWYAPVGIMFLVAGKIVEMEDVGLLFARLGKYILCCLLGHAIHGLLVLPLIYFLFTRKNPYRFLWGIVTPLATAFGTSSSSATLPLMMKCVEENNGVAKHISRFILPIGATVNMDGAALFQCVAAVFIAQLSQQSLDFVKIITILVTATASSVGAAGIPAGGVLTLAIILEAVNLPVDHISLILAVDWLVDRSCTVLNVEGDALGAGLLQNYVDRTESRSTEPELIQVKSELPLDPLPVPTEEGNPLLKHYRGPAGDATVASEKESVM

SMILES: Cc1cccc(COc2ccccc2CN(CCC(N)C(=O)O)Cc2ccccc2OCc2cccc(C)c2)c1 (stereo not shown) [Compound V-9302]
- inhibition of leucine uptake [1]: capable of inhibiting the uptake of another ASCT2 substrate, leucine
- cellular viability and cell death ([2]; 25 μM, 48 h, three independent assays lacking ATP-dependency): reduced cellular viability and increased cell death
- EC50 ([2]; four human CRC cell lines, 48 hrs, MultiTox Glo, read-out: EC50, cellular viability): 9 to 15 µM
- pERK [3]: modest decrease in pERK
- pS6 [3]: significantly decreased pS6
- pERK (independent biochemical assay) [4]: statistically significant, concentration-dependent decrease in pERK
- cell viability, combination [5]: further decreased cell viability
- reduction of [18F]-4F-glutamine uptake in tumors [6]: approximately 50%
- cleaved caspase 3 in tumor tissue ([7]; IHC): elevated levels of cleaved caspase 3
- pS6 in tumor tissue ([7]; IHC): significantly decreased pS6
- tumor growth ([7]; vs vehicle): prevented tumor growth
- tumor volume [8]: reduction in tumor volume
- tumor BRDU uptake [9]: decreased tumor BRDU uptake
- tumor growth [9]: tumor growth arrest
- tumor response markers [9]: elevated LC3B, cleaved caspase 3 and decreased pAKT (Ser473 and Thr308), as well as increased cleaved PARP and decreased and pERK
- protection of ASCT2 from proteolysis (thermolysin) [10]: protected from proteolysis in a V-9302 concentration-dependent manner
